In ChEMBL document CHEMBL1201862, “PubChem BioAssay data set” (2004):
Calls of active or inactive are those of the source.

Key:
Vero [1] = assay: mammalian cell viability reduction – secondary assay, cytotoxicity control for West Nile virus antiviral project, dose response (AID 1650); format: functional; settings: Chlorocebus sabaeus
[2] = biological target: T1, Type-1 angiotensin II receptor (Homo sapiens, UniProt P30556); assay: agonist activity at AGTR1 – cell-based, uHTS hits, selectivity assay for APJ receptor agonist project, dose response (AID 488865); format: functional;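 also: beta-arrestin recruitment to AT1 measured by enzyme fragment complementation luminescence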
T1 sequence (P30556 whole entry): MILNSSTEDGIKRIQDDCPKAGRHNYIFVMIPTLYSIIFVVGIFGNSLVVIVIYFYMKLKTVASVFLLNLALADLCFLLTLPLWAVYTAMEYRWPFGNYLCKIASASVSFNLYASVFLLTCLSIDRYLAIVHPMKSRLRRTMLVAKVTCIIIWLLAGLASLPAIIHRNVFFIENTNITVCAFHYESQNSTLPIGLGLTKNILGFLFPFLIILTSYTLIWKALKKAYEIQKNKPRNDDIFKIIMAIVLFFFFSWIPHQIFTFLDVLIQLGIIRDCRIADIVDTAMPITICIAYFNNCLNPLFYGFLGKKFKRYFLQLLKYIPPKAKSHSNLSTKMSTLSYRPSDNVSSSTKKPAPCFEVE

Genome polyprotein [3] = biological target: Genome polyprotein (Hepatitis C virus, UniProt Q2Q167); assay: disruption of hepatitis C core self-association – biochemical, TR-FRET, dose response (AID 2159); design: species or system Hepacivirus hominis;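 also: blocks dimerization of HCV core protein measured by TR-FRET between tagged core106 pairs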
Genome polyprotein (Hepatitis C virus, UniProt Q2Q167), sequence (Q2Q167 whole entry): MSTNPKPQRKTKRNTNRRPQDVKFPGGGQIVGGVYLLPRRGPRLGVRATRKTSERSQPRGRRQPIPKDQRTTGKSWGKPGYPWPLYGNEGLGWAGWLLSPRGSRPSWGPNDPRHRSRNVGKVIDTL

[4] = biological target: E3 ubiquitin-protein ligase Mdm2 (Homo sapiens, UniProt Q00987); assay: MDM2-luc reporter signal enhancers, multi-concentration potency testing, MDM2 ubiquitin-protein ligase inhibitor program, whole-cell format, luminescence detection, 384-well microplate (AID 1394); format: functional;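 also: MDM2 E3 inhibitors raise luminescence so EC50 is for signal enhancement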
E3 ubiquitin-protein ligase Mdm2, sequence (Q00987 whole entry): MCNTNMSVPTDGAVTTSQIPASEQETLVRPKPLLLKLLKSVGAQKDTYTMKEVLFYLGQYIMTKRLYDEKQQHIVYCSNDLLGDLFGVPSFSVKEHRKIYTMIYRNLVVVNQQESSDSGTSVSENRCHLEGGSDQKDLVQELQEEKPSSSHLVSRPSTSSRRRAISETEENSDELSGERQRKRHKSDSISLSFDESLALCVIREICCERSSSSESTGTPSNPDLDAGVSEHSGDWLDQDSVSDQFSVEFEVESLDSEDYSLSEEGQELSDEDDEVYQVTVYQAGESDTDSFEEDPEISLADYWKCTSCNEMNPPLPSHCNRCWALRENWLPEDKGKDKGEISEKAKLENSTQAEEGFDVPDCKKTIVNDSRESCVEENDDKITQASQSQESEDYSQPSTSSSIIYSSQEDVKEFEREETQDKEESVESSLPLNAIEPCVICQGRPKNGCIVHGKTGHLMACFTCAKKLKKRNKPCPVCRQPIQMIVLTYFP

Nonstructural protein 1 = Nonstructural protein 1 (Influenza A virus, UniProt Q194T2); format: functional, Influenza A virus (A/California/07/2009(H1N1))
Nonstructural protein 1, sequence (Q194T2 whole entry): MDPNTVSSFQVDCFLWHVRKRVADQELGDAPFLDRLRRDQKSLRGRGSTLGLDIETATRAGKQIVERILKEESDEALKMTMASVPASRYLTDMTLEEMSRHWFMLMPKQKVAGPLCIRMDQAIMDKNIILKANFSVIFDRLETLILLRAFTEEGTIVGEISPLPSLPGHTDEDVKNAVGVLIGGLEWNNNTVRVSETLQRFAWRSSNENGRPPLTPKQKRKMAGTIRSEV

[5] = RAM pathway signaling blockade in S. cerevisiae – dose response (AID 1307); format: functional
[6] = biological target: T2, Histone-lysine N-methyltransferase NSD2 (Homo sapiens, UniProt O96028); format: biochemical
T2 sequence (O96028 whole entry): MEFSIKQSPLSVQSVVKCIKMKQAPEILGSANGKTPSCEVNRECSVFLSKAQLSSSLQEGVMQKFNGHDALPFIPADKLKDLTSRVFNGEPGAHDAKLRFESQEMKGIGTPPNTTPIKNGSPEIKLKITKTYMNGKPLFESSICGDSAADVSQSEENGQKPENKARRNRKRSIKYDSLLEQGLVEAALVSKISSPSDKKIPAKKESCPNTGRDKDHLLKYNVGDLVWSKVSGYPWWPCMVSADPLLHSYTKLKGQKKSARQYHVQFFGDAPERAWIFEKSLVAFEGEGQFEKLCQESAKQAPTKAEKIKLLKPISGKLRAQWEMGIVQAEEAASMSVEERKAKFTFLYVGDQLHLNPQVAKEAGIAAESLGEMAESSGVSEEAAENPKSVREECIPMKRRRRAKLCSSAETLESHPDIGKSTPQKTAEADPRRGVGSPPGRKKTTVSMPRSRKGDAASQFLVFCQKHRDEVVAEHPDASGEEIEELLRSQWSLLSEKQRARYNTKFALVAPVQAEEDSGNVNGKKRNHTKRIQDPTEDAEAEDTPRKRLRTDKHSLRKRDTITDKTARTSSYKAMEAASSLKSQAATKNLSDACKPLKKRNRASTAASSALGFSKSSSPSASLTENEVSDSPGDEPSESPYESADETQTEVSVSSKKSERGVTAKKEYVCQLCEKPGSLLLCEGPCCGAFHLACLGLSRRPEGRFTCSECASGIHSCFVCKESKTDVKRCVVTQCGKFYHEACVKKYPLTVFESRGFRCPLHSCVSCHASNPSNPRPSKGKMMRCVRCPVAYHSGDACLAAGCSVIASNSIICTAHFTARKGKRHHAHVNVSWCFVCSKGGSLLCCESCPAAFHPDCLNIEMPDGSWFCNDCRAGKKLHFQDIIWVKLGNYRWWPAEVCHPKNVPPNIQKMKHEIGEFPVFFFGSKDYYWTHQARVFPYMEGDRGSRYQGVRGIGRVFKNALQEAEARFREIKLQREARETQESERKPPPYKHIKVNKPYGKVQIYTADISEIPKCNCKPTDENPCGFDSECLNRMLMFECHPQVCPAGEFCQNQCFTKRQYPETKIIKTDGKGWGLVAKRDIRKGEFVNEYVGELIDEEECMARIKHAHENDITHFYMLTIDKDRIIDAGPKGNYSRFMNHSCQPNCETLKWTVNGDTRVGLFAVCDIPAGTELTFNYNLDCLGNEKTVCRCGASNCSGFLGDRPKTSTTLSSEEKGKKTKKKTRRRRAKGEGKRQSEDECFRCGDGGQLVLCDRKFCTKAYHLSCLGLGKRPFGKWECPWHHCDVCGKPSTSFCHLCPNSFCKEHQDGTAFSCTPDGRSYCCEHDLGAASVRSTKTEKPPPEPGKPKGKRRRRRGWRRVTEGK

[7] = biological target: Eukaryotic translation initiation factor 4E (Mus musculus, UniProt P63073); assay: blockers of eIF4G binding by eIF4E – biochemical, TR-FRET, dose response (AID 855); format: functional;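 also: potency for disrupting eIF4E binding to eIF4GI seen as loss of FRET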
Eukaryotic translation initiation factor 4E, sequence (P63073 whole entry): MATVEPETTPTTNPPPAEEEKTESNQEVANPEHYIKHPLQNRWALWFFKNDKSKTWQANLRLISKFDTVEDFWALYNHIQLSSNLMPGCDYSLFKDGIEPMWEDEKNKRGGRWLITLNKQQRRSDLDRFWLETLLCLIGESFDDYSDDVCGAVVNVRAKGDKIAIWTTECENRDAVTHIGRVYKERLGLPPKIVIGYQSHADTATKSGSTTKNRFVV

Vero [8] = assay: viability of Vero cells under compound – cytotoxicity control for flavivirus capping enzyme inhibitors (AID 588742); format: functional; settings: Chlorocebus sabaeus
Genome polyprotein [9] = biological target: Genome polyprotein (dengue virus type 2, UniProt P29990); assay: flavivirus cap methylation enzyme inhibition – biochemical, confirmation dose response, primary screen (AID 588689); format: functional
Genome polyprotein (dengue virus type 2, UniProt P29990), sequence (P29990 2492-3391 limits assumed): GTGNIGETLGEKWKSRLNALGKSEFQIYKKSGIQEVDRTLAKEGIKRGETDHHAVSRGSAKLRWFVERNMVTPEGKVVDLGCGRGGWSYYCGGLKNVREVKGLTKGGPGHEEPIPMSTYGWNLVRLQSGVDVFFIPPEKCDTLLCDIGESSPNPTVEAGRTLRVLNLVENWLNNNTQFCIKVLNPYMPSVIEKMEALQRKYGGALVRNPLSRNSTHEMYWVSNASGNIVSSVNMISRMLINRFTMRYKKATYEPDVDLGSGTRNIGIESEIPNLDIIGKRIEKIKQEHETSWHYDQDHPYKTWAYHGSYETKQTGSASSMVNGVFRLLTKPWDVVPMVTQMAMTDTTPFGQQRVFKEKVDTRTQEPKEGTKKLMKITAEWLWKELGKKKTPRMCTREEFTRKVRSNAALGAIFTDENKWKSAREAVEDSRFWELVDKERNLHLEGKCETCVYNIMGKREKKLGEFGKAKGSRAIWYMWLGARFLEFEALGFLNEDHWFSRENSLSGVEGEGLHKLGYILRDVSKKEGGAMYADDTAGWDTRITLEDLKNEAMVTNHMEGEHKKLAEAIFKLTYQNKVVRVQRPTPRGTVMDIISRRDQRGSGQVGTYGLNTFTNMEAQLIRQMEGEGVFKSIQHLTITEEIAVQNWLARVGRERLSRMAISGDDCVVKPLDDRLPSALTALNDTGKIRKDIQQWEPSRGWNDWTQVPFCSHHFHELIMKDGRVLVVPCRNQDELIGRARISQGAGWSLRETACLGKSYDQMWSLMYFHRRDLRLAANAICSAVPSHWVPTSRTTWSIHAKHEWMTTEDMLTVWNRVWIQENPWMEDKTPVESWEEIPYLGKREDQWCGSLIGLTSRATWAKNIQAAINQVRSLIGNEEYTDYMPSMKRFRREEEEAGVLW

[10] = Dd2 parasite growth inhibition in erythrocytes – SYBR Green, dry powder samples, set 9, dose response (AID 1159568); format: functional, cell-based
[11] = growth inhibition of PfATP4-mutant resistant parasites – NITD609-resistant line, SYBR Green, dry powder, dose response (AID 1159571); format: functional, cell-based;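 also: parasites synchronized at ring stage by sorbitol before testing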
[12] = Dd2 malaria parasite growth inhibition potency – SYBR Green, dry powder samples, dose response (AID 1159566); format: functional, cell-based;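 also: potency for growth inhibition with lower SYBR green DNA signal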
[13] = growth inhibition of yeast DHODH-expressing 3D7 parasites – SYBR Green, dry powder samples, dose response (AID 1159570); format: functional, cell-based;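 also: parasite growth measured after 72 hours of compound exposure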
[14] = toxicity to human HepG2 hepatoma cells – cell-based, plate reader, dry powder samples, cytotoxicity control, dose response (AID 1159569); format: functional;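 also: inhibitor potency with signal falling toward the positive control level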
[15] = P. falciparum Dd2 growth inhibitors, dose response, SYBR Green, cherry-picked samples (AID 1159567); format: functional, cell-based
NADPH oxidase 1 = NADPH oxidase 1 (Homo sapiens, UniProt Q9Y5S8); assay: Late-stage luminescence-based cell-based dose response assay to identify inhibitors of NADPH oxidase 1 (NOX1): Purchased analogs 2.; format: functional
NADPH oxidase 1, sequence (Q9Y5S8 whole entry): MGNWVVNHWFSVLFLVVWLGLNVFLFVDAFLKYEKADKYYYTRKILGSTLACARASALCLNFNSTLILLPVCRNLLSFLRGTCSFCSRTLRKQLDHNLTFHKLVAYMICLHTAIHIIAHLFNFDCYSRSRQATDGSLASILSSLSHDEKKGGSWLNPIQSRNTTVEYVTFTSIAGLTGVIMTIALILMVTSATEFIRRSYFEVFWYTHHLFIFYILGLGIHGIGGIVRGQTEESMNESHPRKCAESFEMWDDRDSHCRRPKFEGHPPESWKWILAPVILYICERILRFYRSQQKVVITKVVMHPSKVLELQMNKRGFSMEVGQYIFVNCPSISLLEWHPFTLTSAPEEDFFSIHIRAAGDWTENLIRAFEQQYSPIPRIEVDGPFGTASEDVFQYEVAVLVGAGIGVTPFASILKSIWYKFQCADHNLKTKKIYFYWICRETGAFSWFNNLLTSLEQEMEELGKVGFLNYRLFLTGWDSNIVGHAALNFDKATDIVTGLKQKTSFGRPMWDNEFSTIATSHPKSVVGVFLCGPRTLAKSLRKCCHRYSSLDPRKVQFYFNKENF

[16] = biological target: Heat shock protein HSP 90-alpha (Homo sapiens, UniProt P07900); assay: Luminescence-based dose response biochemical high throughput screening assay for inhibitors of the Heat Shock Protein 90 (HSP90). [Related pubchem assays: 1831 (Summary AID.), 1846 (Confirmation screen.), 1789 (Primary screen.)]
[17] = biological target: T3, Zinc finger protein mex-5 (Caenorhabditis elegans, UniProt Q9XUB2); assay: potency of MEX-5 RNA-binding blockers – biochemical, C. elegans, fluorescence polarization, dose response (AID 1960)
T3 sequence (Q9XUB2 whole entry): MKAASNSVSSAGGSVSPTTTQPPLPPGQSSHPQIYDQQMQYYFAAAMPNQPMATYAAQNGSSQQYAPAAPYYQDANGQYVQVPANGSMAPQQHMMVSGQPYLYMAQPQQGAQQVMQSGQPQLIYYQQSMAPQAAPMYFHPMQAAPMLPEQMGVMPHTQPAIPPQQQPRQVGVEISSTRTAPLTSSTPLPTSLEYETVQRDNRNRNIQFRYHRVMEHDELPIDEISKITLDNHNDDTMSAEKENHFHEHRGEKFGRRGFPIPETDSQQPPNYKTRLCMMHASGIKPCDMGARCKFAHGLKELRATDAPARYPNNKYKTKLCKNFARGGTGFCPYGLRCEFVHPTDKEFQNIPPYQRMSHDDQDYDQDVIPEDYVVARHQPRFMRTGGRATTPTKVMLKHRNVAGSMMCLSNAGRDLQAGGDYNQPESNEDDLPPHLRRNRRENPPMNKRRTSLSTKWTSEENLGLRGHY

[18] = biological target: T4, RNA-binding protein pos-1 (Caenorhabditis elegans, UniProt G5EF15); assay: disruptors of C. elegans POS-1 RNA interaction – biochemical, fluorescence polarization, dose response (AID 1964);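 also: purified POS-1 fused to maltose binding protein made in E. coli; potency of compounds blocking POS-1 binding to fluorescent RNA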
T4 sequence (G5EF15 whole entry): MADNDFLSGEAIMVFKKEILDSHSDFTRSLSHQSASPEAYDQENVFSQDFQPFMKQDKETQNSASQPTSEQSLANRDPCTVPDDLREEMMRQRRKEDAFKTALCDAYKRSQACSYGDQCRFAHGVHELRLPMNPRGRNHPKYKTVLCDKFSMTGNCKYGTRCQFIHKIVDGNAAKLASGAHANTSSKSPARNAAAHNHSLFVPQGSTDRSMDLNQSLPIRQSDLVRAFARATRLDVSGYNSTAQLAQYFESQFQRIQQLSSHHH

[19] = Luminescent dose response cell-based high throughput screening assay for inhibitors of the Janus kinase 2 mutant JAK2V617F. [Related pubchem assays: 1446 (Primary screen.), 1521 (Confirmation assay.), 1486 (Counter screen.)]; format: functional
[20] = M. tuberculosis growth inhibition, HTS (AID 449762); format: functional
[21] = M. tuberculosis H37Rv growth inhibitors, H37Rv strain (AID 1626); format: functional
[22] = NIH3T3 cell viability loss – ATP luminescence, mouse fibroblasts, counter-screen, dose response (AID 2010); format: functional, cell-based;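 also: cells exposed to compound for about 90 hours before reading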
[23] = blockers of bursicon-stimulated LGR2 cAMP reporter – cell-based, HEK293, CRE-luciferase reporter, cherry pick, set 2, dose response (AID 743343); format: functional;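 also: transfected cells were stimulated with diluted bursicon conditioned medium after compound addition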
[24] = decrease of insulin promoter-GFP reporter – imaging, high-content screening, mouse beta cells (AID 1628); format: functional; settings: MIN6
[25] = toxicity toward HepG2 liver cells – cell-based, plate reader, cherry-pick, antagonist series, cytotoxicity control, dose response (AID 743416); format: functional
[26] = blockade of melanocortin 4 receptor signaling – cell-based, plate reader, cherry pick, counter-screen for LGR2 antagonist project, dose response (AID 743444); format: functional;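 also: transfected HEK 293 cells stimulated with alpha-MSH peptide; potency of inhibitors of the alpha-MSH evoked signal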
[27] = viability loss in Vero cells – cytotoxicity control for Vif-APOBEC3G degradation inhibitor project, dose response (AID 1117358); format: functional; settings: Vero
[28] = Trypanosoma cruzi growth suppression in host cells – NIH3T3 host cells, beta-gal luminescence, confirmation (AID 2044); format: functional, cell-based;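 also: intracellular parasites grown in NIH/3T3 mouse fibroblasts as host cells; luminescent beta-galactosidase reporter signal from transgenic T. cruzi replicating inside host cells; inhibitors lower the luminescence signal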
[29] = viability loss in HEK293 cells – cell-based, plate reader, cherry-picked samples, cytotoxicity control, dose response (AID 743446); format: functional
[30] = MIN6 cell viability loss – mouse insulinoma, cytotoxicity control, dose response (AID 2122); format: functional;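 also: confirmatory high-throughput counterscreen run to flag cytotoxic compounds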

## CCOC(=O)N1CCN(S(=O)(=O)c2ccc(C(=O)N(CCCN(C)C)c3nc4ccc(Cl)cc4s3)cc2)CC1
Vero [1]
  CC50: 10.1 µM (active)
[2]
  EC50: > 100 µM (inactive)

## NS(=O)(=O)c1ccc(NC(=O)c2ccc(S(=O)(=O)N3CCc4ccccc43)cc2)cc1
Genome polyprotein [3]
  IC50: > 49.8 µM (not active)

## CC(=O)c1ccc(OCC(O)Cn2nnc3ccccc32)cc1 (configuration not stated)
[4]
  EC50: 12.7 µM (not active)

## Cc1cc(C)c(Nc2cc(S(=O)(=O)O)c(N)c3c2C(=O)c2ccccc2C3=O)c(C)c1 [ACID BLUE 129]
Nonstructural protein 1
  IC50: 3.96 µM (active)
[5]
  IC50: 139 µM (active)
[6]
  AC50: 3.75 µM (active)
[7]
  IC50: 26.1 µM (inactive)
Vero [8]
  CC50: > 40 µM (active)
Genome polyprotein [9]
  IC50: 21.5 µM (active)

## CCCNC(=O)N1[C@H](C#N)[C@H](c2ccc(-c3ccccc3F)cc2)[C@@H]1CO
[10]
  AC50: 0.608 µM (active)
[11]
  AC50: 0.511 µM (active)
[12]
  AC50: 0.377 µM (active)
[13]
  AC50: 6.61 µM (active)
[14]
  AC50: 1.6 µM (active)
[15]
  AC50: 0.522 µM (active)

## CC(=O)Nc1ccc(CC(=O)Nc2ccc(Oc3ccc(Br)cc3)cc2)cc1
NADPH oxidase 1
  IC50: > 17 µM (not active)

## O=c1oc2ccc(Cl)cc2nc1/C=C(\O)c1ccco1
[16]
  IC50: 2.73 µM (active)
[17]
  EC50: > 300 µM (not active)
[18]
  EC50: > 300 µM (not active)
[19]
  IC50: 1.5 µM (active)

## CCOC(=O)N1CCN=C1SCc1ccc(C(F)(F)F)cc1
[20]
  IC50: > 100 µM (active)
[21]
  IC50: > 100 µM (active)

## Cc1cc(C)c(Cc2c(C)nc3c(C(=O)NCc4ccco4)cnn3c2C)c(C)c1
[22]
  EC50: > 60 µM (not active)
[23]
  AC50: 19.9 µM (active)
[24]
  IC50: 1.51 µM (active)
[25]
  AC50: 32.9 µM (active)
[26]
  AC50: 55.6 µM (active)
[27]
  CC50: > 40 µM (active)
[28]
  EC50: 2.67 µM (active)
[29]
  AC50: 50 µM (active)
[30]
  IC50: 1.42 µM (active)
